Assay results taken from ChEMBL document CHEMBL3991601, “The target landscape of clinical kinase drugs” (Science, 2017).
Active and inactive are the calls of the source. For most assays here, no stated cut-off is given here; in the data, actives have a measured Kd and inactives only a lower limit.

Tests used:
[1] = biological target: Adenosine kinase (Homo sapiens, UniProt P55263)
[2] = biological target: TGF-beta receptor type-2 (Homo sapiens, UniProt P37173)
[3] = biological target: Cyclin-dependent kinase 3 (Homo sapiens, UniProt Q00526)
Chain of Cyclin-dependent kinase 3 (Q00526 whole entry): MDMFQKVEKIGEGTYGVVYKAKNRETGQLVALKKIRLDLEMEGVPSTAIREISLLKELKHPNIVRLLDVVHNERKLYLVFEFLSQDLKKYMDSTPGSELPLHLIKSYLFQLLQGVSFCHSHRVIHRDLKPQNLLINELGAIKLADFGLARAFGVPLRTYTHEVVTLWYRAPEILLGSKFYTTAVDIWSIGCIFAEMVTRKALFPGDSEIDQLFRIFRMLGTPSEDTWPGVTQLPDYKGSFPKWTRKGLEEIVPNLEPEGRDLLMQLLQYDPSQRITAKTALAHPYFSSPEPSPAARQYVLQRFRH

[4] = biological target: Activated CDC42 kinase 1 (Homo sapiens, UniProt Q07912)
Chain of Activated CDC42 kinase 1 (Q07912 whole entry): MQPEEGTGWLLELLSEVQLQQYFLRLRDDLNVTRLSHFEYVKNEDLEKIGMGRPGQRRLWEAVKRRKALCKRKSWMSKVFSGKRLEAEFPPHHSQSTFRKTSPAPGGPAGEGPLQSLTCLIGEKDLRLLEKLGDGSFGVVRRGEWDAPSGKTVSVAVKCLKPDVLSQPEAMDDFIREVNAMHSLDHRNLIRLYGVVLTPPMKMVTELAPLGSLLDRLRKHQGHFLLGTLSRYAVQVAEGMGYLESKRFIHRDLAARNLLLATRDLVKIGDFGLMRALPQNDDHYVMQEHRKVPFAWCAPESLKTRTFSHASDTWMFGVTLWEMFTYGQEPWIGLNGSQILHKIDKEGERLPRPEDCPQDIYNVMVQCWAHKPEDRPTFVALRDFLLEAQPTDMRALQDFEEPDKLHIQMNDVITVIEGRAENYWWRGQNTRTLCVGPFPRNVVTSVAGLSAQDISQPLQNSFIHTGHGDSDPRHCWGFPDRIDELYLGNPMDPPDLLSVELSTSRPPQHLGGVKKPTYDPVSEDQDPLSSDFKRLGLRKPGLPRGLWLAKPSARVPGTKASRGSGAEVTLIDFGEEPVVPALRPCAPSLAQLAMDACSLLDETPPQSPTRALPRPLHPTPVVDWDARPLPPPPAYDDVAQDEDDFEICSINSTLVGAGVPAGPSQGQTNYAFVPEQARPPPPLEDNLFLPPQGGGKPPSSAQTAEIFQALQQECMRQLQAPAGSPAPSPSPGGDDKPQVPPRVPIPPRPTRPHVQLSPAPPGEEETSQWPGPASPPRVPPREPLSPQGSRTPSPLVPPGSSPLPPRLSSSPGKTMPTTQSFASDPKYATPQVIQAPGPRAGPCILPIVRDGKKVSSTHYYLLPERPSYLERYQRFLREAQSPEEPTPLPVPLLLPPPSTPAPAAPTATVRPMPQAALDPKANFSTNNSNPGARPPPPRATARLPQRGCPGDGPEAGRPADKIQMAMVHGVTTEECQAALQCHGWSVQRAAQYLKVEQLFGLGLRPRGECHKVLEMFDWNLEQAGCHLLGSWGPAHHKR

[5] = biological target: T1, Serine/threonine-protein kinase D2 (Homo sapiens, UniProt Q9BZL6)
T1 sequence (Q9BZL6 whole entry): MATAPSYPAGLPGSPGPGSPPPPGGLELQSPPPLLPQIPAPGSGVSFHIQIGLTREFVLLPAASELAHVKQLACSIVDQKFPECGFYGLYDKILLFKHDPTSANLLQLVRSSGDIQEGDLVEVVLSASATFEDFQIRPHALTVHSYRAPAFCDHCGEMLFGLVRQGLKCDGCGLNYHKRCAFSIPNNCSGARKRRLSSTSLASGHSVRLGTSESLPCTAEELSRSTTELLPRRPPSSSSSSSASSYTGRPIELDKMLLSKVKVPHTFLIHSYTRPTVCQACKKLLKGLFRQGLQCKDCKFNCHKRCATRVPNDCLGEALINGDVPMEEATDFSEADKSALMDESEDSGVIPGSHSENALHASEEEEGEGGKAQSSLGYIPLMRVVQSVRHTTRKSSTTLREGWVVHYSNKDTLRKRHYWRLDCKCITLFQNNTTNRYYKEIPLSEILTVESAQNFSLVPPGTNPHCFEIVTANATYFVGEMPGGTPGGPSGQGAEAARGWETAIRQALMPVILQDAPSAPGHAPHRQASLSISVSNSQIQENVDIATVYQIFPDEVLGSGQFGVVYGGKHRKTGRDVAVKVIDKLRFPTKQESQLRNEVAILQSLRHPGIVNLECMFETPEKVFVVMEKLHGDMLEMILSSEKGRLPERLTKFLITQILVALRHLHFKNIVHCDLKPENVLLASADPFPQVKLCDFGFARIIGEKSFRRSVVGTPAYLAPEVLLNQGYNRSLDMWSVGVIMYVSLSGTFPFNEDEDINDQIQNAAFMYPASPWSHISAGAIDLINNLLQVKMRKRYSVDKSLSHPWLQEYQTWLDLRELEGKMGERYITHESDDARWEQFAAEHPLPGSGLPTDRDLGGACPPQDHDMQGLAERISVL

[6] = biological target: T2, Mitogen-activated protein kinase kinase kinase 2 (Homo sapiens, UniProt Q9Y2U5)
T2 sequence (Q9Y2U5 whole entry): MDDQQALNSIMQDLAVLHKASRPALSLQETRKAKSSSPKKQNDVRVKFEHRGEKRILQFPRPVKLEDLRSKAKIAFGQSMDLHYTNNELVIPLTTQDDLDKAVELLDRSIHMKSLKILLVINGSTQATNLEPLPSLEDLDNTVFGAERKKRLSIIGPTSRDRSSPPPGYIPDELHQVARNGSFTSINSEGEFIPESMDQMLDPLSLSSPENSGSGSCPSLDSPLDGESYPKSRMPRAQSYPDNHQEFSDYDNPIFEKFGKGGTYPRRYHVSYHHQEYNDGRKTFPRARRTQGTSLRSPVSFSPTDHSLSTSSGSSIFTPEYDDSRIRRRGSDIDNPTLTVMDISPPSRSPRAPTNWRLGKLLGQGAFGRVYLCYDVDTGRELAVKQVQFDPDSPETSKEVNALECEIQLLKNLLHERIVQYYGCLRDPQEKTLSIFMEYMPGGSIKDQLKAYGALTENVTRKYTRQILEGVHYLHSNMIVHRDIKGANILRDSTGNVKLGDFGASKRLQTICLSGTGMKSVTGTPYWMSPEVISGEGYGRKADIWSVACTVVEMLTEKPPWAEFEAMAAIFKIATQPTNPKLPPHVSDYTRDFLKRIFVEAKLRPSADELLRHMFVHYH

[7] = biological target: Activin receptor type-2B (Homo sapiens, UniProt Q13705)
Chain of Activin receptor type-2B (Q13705 whole entry): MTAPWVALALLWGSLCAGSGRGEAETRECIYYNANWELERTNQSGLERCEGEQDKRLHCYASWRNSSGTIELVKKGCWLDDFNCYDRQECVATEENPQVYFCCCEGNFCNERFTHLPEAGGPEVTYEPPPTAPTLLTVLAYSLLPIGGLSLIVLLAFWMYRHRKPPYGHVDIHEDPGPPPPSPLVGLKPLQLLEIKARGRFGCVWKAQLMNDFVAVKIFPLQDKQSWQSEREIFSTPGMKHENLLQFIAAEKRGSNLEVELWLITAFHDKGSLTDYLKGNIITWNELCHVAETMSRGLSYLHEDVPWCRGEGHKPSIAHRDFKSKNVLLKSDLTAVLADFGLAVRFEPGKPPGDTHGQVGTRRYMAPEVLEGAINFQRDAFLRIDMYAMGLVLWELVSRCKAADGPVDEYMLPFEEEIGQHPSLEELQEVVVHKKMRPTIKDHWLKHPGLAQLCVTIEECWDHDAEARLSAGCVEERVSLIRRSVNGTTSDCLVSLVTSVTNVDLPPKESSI

[8] = biological target: Tyrosine-protein kinase Fyn (Homo sapiens, UniProt P06241)
Chain of Tyrosine-protein kinase Fyn (P06241 whole entry): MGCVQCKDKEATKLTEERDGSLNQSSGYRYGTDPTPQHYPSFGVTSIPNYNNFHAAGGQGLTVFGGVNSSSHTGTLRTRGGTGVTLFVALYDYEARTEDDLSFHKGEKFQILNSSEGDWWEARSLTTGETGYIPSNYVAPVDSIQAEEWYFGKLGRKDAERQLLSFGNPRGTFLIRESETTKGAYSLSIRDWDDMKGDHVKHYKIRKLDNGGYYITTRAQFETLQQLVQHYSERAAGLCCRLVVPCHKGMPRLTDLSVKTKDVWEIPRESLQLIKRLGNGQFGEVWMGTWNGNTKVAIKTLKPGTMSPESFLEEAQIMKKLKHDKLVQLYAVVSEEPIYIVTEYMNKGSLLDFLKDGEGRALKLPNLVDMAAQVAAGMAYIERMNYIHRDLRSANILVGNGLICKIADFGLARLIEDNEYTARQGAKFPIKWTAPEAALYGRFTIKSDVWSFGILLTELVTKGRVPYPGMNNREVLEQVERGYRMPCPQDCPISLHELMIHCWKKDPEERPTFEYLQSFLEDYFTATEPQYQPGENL

[9] = biological target: T3, Serine/threonine-protein kinase Nek1 (Homo sapiens, UniProt Q96PY6)
T3 sequence (Q96PY6 whole entry): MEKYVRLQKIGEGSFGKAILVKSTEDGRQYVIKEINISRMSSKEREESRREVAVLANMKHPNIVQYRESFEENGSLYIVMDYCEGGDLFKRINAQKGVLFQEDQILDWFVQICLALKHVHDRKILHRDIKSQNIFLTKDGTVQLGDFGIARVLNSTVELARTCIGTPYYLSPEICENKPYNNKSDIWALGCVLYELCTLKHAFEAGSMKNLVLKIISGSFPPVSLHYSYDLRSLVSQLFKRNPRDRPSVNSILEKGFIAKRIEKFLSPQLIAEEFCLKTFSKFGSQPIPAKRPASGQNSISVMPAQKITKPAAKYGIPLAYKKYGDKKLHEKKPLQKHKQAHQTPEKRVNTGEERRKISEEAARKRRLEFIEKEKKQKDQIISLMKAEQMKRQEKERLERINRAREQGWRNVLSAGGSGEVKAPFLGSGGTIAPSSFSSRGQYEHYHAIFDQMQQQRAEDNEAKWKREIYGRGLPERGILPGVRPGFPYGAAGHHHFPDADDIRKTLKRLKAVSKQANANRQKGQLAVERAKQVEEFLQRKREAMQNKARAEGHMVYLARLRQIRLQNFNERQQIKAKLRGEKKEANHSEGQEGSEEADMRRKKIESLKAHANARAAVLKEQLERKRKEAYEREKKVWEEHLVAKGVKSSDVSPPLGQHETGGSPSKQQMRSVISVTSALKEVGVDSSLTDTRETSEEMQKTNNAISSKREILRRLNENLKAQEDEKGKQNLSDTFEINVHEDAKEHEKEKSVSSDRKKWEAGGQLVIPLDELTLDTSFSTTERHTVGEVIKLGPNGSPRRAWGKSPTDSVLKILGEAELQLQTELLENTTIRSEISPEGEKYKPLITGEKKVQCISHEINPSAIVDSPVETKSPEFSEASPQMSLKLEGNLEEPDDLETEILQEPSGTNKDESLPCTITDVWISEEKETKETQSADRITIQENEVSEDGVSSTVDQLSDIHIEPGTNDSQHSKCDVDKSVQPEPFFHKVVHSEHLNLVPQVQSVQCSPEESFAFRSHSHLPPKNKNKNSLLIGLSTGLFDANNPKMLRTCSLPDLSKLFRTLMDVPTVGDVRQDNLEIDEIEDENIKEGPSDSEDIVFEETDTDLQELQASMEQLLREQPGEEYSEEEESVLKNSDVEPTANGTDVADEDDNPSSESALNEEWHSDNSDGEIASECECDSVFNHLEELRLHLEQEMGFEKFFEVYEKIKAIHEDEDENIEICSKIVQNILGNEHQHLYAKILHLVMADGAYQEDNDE

Chain of Adenosine kinase (P55263 whole entry): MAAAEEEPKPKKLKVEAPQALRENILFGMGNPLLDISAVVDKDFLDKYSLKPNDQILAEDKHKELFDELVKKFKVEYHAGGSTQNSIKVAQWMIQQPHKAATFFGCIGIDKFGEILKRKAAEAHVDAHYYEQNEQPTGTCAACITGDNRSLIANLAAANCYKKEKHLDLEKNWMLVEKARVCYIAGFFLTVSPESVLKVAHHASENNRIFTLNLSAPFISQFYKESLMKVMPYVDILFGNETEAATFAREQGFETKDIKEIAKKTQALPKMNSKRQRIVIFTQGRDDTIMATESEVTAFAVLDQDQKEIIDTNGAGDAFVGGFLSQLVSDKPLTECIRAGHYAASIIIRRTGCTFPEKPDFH
Chain of TGF-beta receptor type-2 (P37173 whole entry): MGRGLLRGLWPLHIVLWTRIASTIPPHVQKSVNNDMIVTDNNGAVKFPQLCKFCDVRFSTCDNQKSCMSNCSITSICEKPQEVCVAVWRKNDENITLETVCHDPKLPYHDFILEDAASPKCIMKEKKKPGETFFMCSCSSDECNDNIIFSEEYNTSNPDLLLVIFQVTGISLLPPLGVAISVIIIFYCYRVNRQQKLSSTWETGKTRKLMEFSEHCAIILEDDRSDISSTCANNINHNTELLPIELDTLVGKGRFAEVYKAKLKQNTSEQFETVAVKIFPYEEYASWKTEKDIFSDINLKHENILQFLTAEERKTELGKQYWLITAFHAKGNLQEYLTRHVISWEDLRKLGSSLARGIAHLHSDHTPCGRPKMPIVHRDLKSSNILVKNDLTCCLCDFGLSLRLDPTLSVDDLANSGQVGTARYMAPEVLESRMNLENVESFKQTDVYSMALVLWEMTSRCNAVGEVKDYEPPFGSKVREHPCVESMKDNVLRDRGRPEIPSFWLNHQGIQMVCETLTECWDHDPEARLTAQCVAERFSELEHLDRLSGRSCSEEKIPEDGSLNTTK

| Structure (SMILES) | Kd [1] | Kd [2] | Kd [3] | Kd [4] | Kd [5] | Kd [6] | Kd [7] | Kd [8] | Kd [9] |
| --- | --- | --- | --- | --- | --- | --- | --- | --- | --- |
| COc1cc(Nc2ncc(F)c(Nc3ccc4c(n3)N(COP(=O)(O)O)C(=O)C(C)(C)O4)n2)cc(OC)c1OC [FOSTAMATINIB] | > 30 µM (inactive) | > 30 µM (inactive) | > 30 µM (inactive) | > 30 µM (inactive) | > 30 µM (inactive) | > 30 µM (inactive) | > 30 µM (inactive) | > 30 µM (inactive) | > 30 µM (inactive) |
| CCc1nc(C(N)=O)c(Nc2ccc(N3CCC(N4CCN(C)CC4)CC3)c(OC)c2)nc1NC1CCOCC1 [GILTERITINIB] | > 30 µM (inactive) | > 30 µM (inactive) | > 30 µM (inactive) | 3.15 µM (active) | > 30 µM (inactive) | 0.536 µM (active) | > 30 µM (inactive) | > 30 µM (inactive) | > 30 µM (inactive) |
| Cc1c(Cn2c(C)nc3c(C(=O)O)cc(N4CCOCC4)cc32)cccc1C(F)(F)F [GSK-2636771] | > 30 µM (inactive) | > 30 µM (inactive) | > 30 µM (inactive) | > 30 µM (inactive) | > 30 µM (inactive) | > 30 µM (inactive) | > 30 µM (inactive) | > 30 µM (inactive) | > 30 µM (inactive) |
| O=S(=O)(c1cccc2c(O)nccc12)N1CCCNCC1 [HYDROXYFASUDIL] | > 30 µM (inactive) | > 30 µM (inactive) | > 30 µM (inactive) | > 30 µM (inactive) | 2.54 µM (active) | > 30 µM (inactive) | > 30 µM (inactive) | > 30 µM (inactive) | > 30 µM (inactive) |
| C#Cc1cccc(Nc2ncnc3cc4c(cc23)OCCOCCOCCO4)c1 [ICOTINIB] | > 30 µM (inactive) | > 30 µM (inactive) | > 30 µM (inactive) | > 30 µM (inactive) | > 30 µM (inactive) | > 30 µM (inactive) | > 30 µM (inactive) | > 30 µM (inactive) | > 30 µM (inactive) |
| COc1cc2ncnc3c2cc1OCCCCCN(C)Cc1ccc(Br)cc1N3 [JNJ-26483327] | > 30 µM (inactive) | > 30 µM (inactive) | > 30 µM (inactive) | > 30 µM (inactive) | > 30 µM (inactive) | > 30 µM (inactive) | > 30 µM (inactive) | > 30 µM (inactive) | > 30 µM (inactive) |
| COc1cccc2cc(-c3nc([C@H]4CC[C@H](C(=O)O)CC4)n4ncnc(N)c34)[nH]c12 [OSI-027] | > 30 µM (inactive) | > 30 µM (inactive) | > 30 µM (inactive) | > 30 µM (inactive) | > 30 µM (inactive) | > 30 µM (inactive) | > 30 µM (inactive) | > 30 µM (inactive) | > 30 µM (inactive) |
| CC(C)CC(=O)Nc1[nH]nc2c1CN(C(=O)C1CCN(C)CC1)C2(C)C [PHA-793887] | > 30 µM (inactive) | > 30 µM (inactive) | 0.008 µM (active) | > 30 µM (inactive) | 0.103 µM (active) | > 30 µM (inactive) | > 30 µM (inactive) | > 30 µM (inactive) | > 30 µM (inactive) |
| O=C(NC[C@H](O)CO)c1ccncc1Nc1ccc(I)cc1F [PIMASERTIB] | > 30 µM (inactive) | > 30 µM (inactive) | > 30 µM (inactive) | > 30 µM (inactive) | > 30 µM (inactive) | > 30 µM (inactive) | > 30 µM (inactive) | > 30 µM (inactive) | > 30 µM (inactive) |

Other lines, results leading:

| Kd [1] | Kd [2] | Kd [3] | Kd [4] | Kd [5] | Kd [6] | Kd [7] | Kd [8] | Kd [9] | Structure (SMILES) |
| --- | --- | --- | --- | --- | --- | --- | --- | --- | --- |
| > 30 µM (inactive) | > 30 µM (inactive) | > 30 µM (inactive) | > 30 µM (inactive) | > 30 µM (inactive) | 4.45 µM (active) | > 30 µM (inactive) | > 30 µM (inactive) | > 30 µM (inactive) | CC[C@@](C)(Nc1ccnc(-c2c[nH]c3ncccc23)n1)C(=O)NCC(F)(F)F [DECERNOTINIB] |
| > 30 µM (inactive) | > 30 µM (inactive) | > 30 µM (inactive) | > 30 µM (inactive) | > 30 µM (inactive) | > 30 µM (inactive) | > 30 µM (inactive) | > 30 µM (inactive) | > 30 µM (inactive) | Cc1ccc(C(=O)Nc2ccc(Oc3cc4cnn(C)c4cc3-c3cn[nH]c3)c(F)c2)c(=O)n1-c1ccc(F)cc1 [MERESTINIB] |
| > 30 µM (inactive) | > 30 µM (inactive) | > 30 µM (inactive) | > 30 µM (inactive) | > 30 µM (inactive) | > 30 µM (inactive) | > 30 µM (inactive) | > 30 µM (inactive) | > 30 µM (inactive) | O=C(NOC[C@H](O)CO)c1ccc(F)c(F)c1Nc1ccc(I)cc1F [MIRDAMETINIB] |
| > 30 µM (inactive) | > 30 µM (inactive) | > 30 µM (inactive) | > 30 µM (inactive) | > 30 µM (inactive) | > 30 µM (inactive) | > 30 µM (inactive) | > 30 µM (inactive) | > 30 µM (inactive) | O=C(Nc1ccc(OC(F)(F)F)cc1)c1sccc1NCc1ccnc2ccccc12 [OSI-930] |
| > 30 µM (inactive) | > 30 µM (inactive) | > 30 µM (inactive) | > 30 µM (inactive) | > 30 µM (inactive) | > 30 µM (inactive) | > 30 µM (inactive) | > 30 µM (inactive) | > 30 µM (inactive) | FC(F)(F)c1ccc(CNc2ccc(Cc3c[nH]c4ncc(Cl)cc34)cn2)cn1 [PEXIDARTINIB] |
